Measured values as given in patent US8648045B2, “VDAC1 compositions and methods of use thereof for regulating apoptosis” (Ben Gurion University of the Negev Research and Development …, priority 2005, dated 2014).
Like-named read-outs stand apart in the source and are kept apart here. Peptide text beside a SMILES is read from it.

Assays:
B-16 = assay: Apoptosis induction by various stimuli (acridine orange/ethidium bromide staining); format: cell-based, mouse
Protocol: (§1) Cells were plated at a density of 5.4×10^4 cells/cm^2 in 24-well plates, washed once with PBS and placed in serum-free medium. Cells were then incubated with or without RuR or Ru360. Cells were also treated with […] staurosporine (STS) to induce apoptosis and analyzed for viability 3, 5 and 7 hrs after STS addition. Treatments with curcumin (120 μM) or As2O3 (20 μM) were carried out for 48 hrs.
(§2) To determine cell viability, cells were stained with 100 μg/ml acridine orange (AcOr) and 100 μg/ml ethidium bromide (EtBr) in PBS. Cells were centrifuged at 1500×g for 5 min at room temperature and resuspended in 25 μl of complete medium, to which 2 μl of AcOr/EtBr solution were added. The cells were then visualized by fluorescence microscopy (Olympus IX51) and images were recorded on an Olympus DP70 camera, using a SWB filter.
(§3) Cells were incubated with curcumin (120 μM) or As2O3 (20 μM) for 48 hrs, or with STS (1.25 μM) for 7 hrs. Cell viability was analyzed by acridine orange/ethidium Bromide staining. In each independent experiment, approximately 250 cells were counted for each treatment, in which early and late apoptotic cells were also counted. The data shown in table 3 is the mean±S.E.M. (n=3).

Du-145 = assay: as above; format: cell-based, human
Protocol: as §1, §2, §3

HeLa = assay: as above; format: cell-based, human
Protocol: as §1, §2, §3

Panc = assay: as above; format: cell-based, human
Protocol: as §1, §2, §3

[1] = system: PBMCs isolated from CLL patients; format: cell-based, human
Protocol: Peripheral blood mononuclear cells (PBMCs) were isolated from venous blood of patients with chronic lymphocytic leukemia (CLL) by Ficoll-Paque PLUS (GE Healthcare, Israel) density gradient centrifugation. After informed consent, venous blood (10 ml) was drawn from CLL patients satisfying diagnostic criteria for CLL or from normal adult donors. Blood was collected into heparin tubes and diluted 1:1 with balance solution (composed of two stock solutions, A and B, in 1:9 ratio, respectively. Solution A contained: D-glucose 1%, CaCl2 5×10^−5M, MgCl2 9.8×10^−4M, KCl 5.4×10^−3M, Tris 0.145M, pH 7.6. Solution B contained NaCl 0.14M. The balance solution was prepared freshly every week. The diluted blood sample was subsequently carefully layered on Ficoll-Paque Plus (10 ml of diluted blood: 15 ml Ficoll) in 50 ml conical tubes. Tubes were centrifuged at 400×g (with minimal acceleration and deceleration) for 40 minutes at 18-20° C. The mononuclear cells fine layer was transferred to a new centrifuge tube. Cells were washed 3 times with balance solution and re-suspended in a culture medium appropriate to the application.
(§4) PBMCs (2×10^6 cells/sample) from CLL patients and healthy donors were treated with various concentrations of the peptide Antp-LP4-trp for 90 minutes. Cells were then gently washed once with PBS and stained with propidium iodide (PI) by adding 2.5 μl (1 mg/ml) and immediately analyzed for cell death. The level of cell death, reflected by the percentage of PI-positive cells, was determined by a flow cytometry analysis.
(§5) Preipheral blood mononuclear cells (PMBC) isolated from pateints having chronic lymphocytic leukemia (CLL) and MEC-1 cell lines (human chronic B-cell leukemia) were incubated for 90 min with Peptide N-ANTP (SEQ ID NO:73) at concentrations of 10-40 μM. Cell death was measured by PI staning and FACS analysis.
In ex vivo experiments, peripheral blood mononuclear cells (PBMCs) isolated from healthy individuals or CLL patients were incubated for 90 min with the indicated concentration of the ANTP-LP4-trp peptide. Cell death was assayed by PI staining and FACS analysis (healthy donors, n=34; CLL donors, n=39).

MEC-1 cell line = format: cell-based, human
Protocol: as §4, §5

U937 cells [2] = assay: HK-I over-expression protection against apoptotic cell death in double-transfected cells; format: cell-based, human; conditions: U937 or T-Rex 293 cells stably over-expressing HK-I, mVDAC1-GFP constructs
Protocol: U937 cells were transfected with pcDNA3.1-HisA or pcDNA3.1-HisA-HK-I (neomycin resistance; provided by Dr. J. E. Wilson, University of Michigan) by electroporation, and grown in complete RPMI 1640 with neomycin ([…]). After 12 days, the selected cells were transfected with pEGFP, pEGFP-mVDAC1 or pEGFP-E72Q-mVDAC1 and were grown in the presence of neomycin ([…]). The viability of double-transfected cells was analyzed during 48 to 76 hr.
The effect of HK-I over-expression on apoptotic cell death of the GFP-tagged version of native and E72Q-mVDAC1 over-expressing cells was examined.
Since VDAC1 overexpression induces cell death, U937 cells (FIG. 4A, 4B) or T-Rex™ 293 human embryonic kidney cells (FIG. 4B) were first transformed to stably over-express HK-I and then transfected with native, E65Q, E72Q, K73L, D77N, N75A, or G67A mutated mVDAC1-GFP. […] This β-loop includes amino acid residues T64 to about N78.

U937 cells [3] = assay: Apoptotic cell death of U937 cells transfected with native or mutated mVDAC1, with/without RuR (acridine orange/ethidium bromide staining); format: cell-based, human
Protocol: Logarithmically-growing U937 cells were resuspended in RPMI 1640 supplemented with 10% FCS, 100 U/ml penicillin and […] streptomycin at a concentration of 2.5×10^7 cells/ml. Cells were transfected to express rat or murine VDAC1 using the vectors pEGFP, pEGFP-VDAC1, pEGFP-E72Q-mVDAC1, pE-mVDAC1 or pE-E72Q-mVDAC1. Transfection of the U937 cells was performed by electroporation with a single pulse from a Bio-Rad micropulser II with a capacitance extender unit (200 V, […]). Cells were incubated on ice for 10 min before and after transfection, and then resuspended in 20 ml of RPMI 1640 supplemented with 10% FCS, 1 mM l-glutamine, 100 U/ml penicillin and […] streptomycin. […] GFP-positive cells were viewed under a microscope using a blue filter.
as §1
Fifty six (56) hr after transfection, cells were exposed for 20 hr to RuR (1 μM) and cell viability was analyzed using acridine orange/ethidium bromide staining. In each independent experiment, approximately 250 cells were counted for each including early and late apoptotic cells. Data shown in FIG. 5 and Table 2 are the mean±SEM (n=3).

O=[As]O[As]=O (centres unmarked) [As2O3]
Apoptotic cell death, % of control (B-16; As2O3 20 μM, 48 hrs): 15.0 ± 1.99 % of control | Apoptotic cell death, % of control (Du-145; As2O3 20 μM, 48 hrs): 6.0 ± 0.80 % of control | Apoptotic cell death, % of control (HeLa; As2O3 20 μM, 48 hrs): 24.67 ± 2.65 % of control | Apoptotic cell death, % of control (Panc; As2O3 20 μM, 48 hrs): 67.20 ± 3.87 % of control

COc1cc(/C=C/C(=O)CC(=O)/C=C/c2ccc(O)c(OC)c2)ccc1O [Curcumin, curcumin]
Apoptotic cell death, % of control (B-16; curcumin 120 μM, 48 hrs): 37.47 ± 2.20 % of control | Apoptotic cell death, % of control (Du-145; curcumin 120 μM, 48 hrs): 8.93 ± 0.47 % of control | Apoptotic cell death, % of control (HeLa; curcumin 120 μM, 48 hrs): 36.2 ± 0.70 % of control | Apoptotic cell death, % of control (Panc; curcumin 120 μM, 48 hrs): 70.77 ± 4.31 % of control

CN[C@@H]1C[C@H]2O[C@@](C)([C@@H]1OC)n1c3ccccc3c3c4c(c5c6ccccc6n2c5c31)C(=O)NC4 [STS, staurosporine]
Apoptotic cell death, % of control (B-16; STS 1.25 μM, 7 hrs): 63.12 ± 0.71 % of control | Apoptotic cell death, % of control (Du-145; STS 1.25 μM, 7 hrs): 13.57 ± 4.73 % of control | Apoptotic cell death, % of control (HeLa; STS 1.25 μM, 7 hrs): 72.37 ± 1.30 % of control | Apoptotic cell death, % of control (Panc; STS 1.25 μM, 7 hrs): 84.90 ± 2.06 % of control

CC(C)C[C@H](NC(=O)[C@H](CC(N)=O)NC(=O)[C@@H](NC(=O)[C@H](C)NC(=O)[C@@H](NC(=O)[C@H](CCC(=O)O)NC(=O)[C@H](CC(C)C)NC(=O)[C@H](CCCCN)NC(=O)[C@H](CCCCN)NC(=O)[C@H](CCC(=O)O)NC(=O)[C@H](Cc1c[nH]c2ccccc12)NC(=O)[C@@H](NC(=O)[C@H](Cc1c[nH]c2ccccc12)NC(=O)[C@H](CO)NC(=O)CNC(=O)CNC(=O)[C@H](CCCNC(=N)N)NC(=O)[C@H](CCCNC(=N)N)NC(=O)[C@H](CCCNC(=N)N)NC(=O)[C@H](CCC(N)=O)NC(=O)[C@H](CCCNC(=N)N)NC(=O)[C@H](CCCNC(=N)N)NC(=O)[C@H](CCCCN)NC(=O)[C@H](CCCCN)NC(=O)[C@@H](N)CCCNC(=N)N)[C@@H](C)O)[C@@H](C)O)C(C)C)C(=O)N[C@@H](C)C(=O)N[C@@H](Cc1c[nH]c2ccccc12)C(=O)N[C@H](C(=O)N[C@@H](C)C(=O)NCC(=O)N[C@@H](CC(N)=O)C(=O)N[C@@H](CO)C(=O)N[C@@H](CC(N)=O)C(=O)N[C@@H](CCCCN)C(=O)N[C@@H](Cc1c[nH]c2ccccc12)C(=O)N[C@H](C(=O)N[C@@H](Cc1c[nH]c2ccccc12)C(=O)N[C@@H](CCCCN)C(=O)O)[C@@H](C)O)[C@@H](C)O [TAT-LP4-trp] (H-RKKRRQRRRGGSWTWEKKLETAVNLAWTAGNSNKWTWK-OH; N-terminus and C-terminus assumed)
IC50 ([1]; peptide concentration required to induce apoptosis in 50% of the cells, PBMC from CLL patients, read-out: IC50 μM CLL): 3.5 to 4 µM | IC50 (MEC-1 cell line; peptide concentration required to induce apoptosis in 50% of the cells, MEC-1, read-out: IC50 μM MEC-1): 6 to 7 µM

CC[C@H](C)[C@H](NC(=O)[C@H](C)NC(=O)[C@@H](N)Cc1c[nH]cn1)C(=O)N[C@@H](Cc1ccc(O)cc1)C(=O)N1CCC[C@H]1C(=O)N[C@@H](CCCNC(=N)N)C(=O)N[C@@H](Cc1c[nH]cn1)C(=O)N[C@@H](CO)C(=O)N[C@@H](Cc1c[nH]c2ccccc12)C(=O)N[C@H](C(=O)N[C@@H](Cc1c[nH]c2ccccc12)C(=O)N[C@@H](CCC(=O)O)C(=O)N[C@@H](CCCCN)C(=O)N[C@@H](CCCCN)C(=O)N[C@@H](CC(C)C)C(=O)N[C@@H](CCC(=O)O)C(=O)N[C@H](C(=O)N[C@@H](C)C(=O)N[C@H](C(=O)N[C@@H](CC(N)=O)C(=O)N[C@@H](CC(C)C)C(=O)N[C@@H](C)C(=O)N[C@@H](Cc1c[nH]c2ccccc12)C(=O)N[C@H](C(=O)N[C@@H](C)C(=O)NCC(=O)N[C@@H](CC(N)=O)C(=O)N[C@@H](CO)C(=O)N[C@@H](CC(N)=O)C(=O)N[C@@H](CCCCN)C(=O)N[C@@H](Cc1c[nH]c2ccccc12)C(=O)N[C@H](C(=O)N[C@@H](Cc1c[nH]c2ccccc12)C(=O)N[C@@H](CCCCN)C(=O)O)[C@@H](C)O)[C@@H](C)O)C(C)C)[C@@H](C)O)[C@@H](C)O [Tf-LP4-trp]
IC50 [1]: 1.5 to 2 µM | IC50 (MEC-1 cell line): 2.4 to 3 µM

D77N-mVDAC1: VDAC1 polypeptide variant D77N [Peptide D77N-mVDAC1]
protective effect of HK-I over-expression against cell death induced by mVDAC1 over-expression (U937 cells [2]): no protective effect

E65Q-mVDAC1: VDAC1 polypeptide variant E65Q [Peptide E65Q-mVDAC1]
protective effect of HK-I over-expression against cell death induced by mVDAC1 over-expression (U937 cells [2]): no protective effect

E72Q-mVDAC1: VDAC1 polypeptide variant E72Q [Peptide E72Q-mVDAC1]
protective effect of HK-I over-expression against cell death induced by mVDAC1 over-expression (U937 cells [2]): no protective effect

E72Q-mVDAC-GFP: GFP-tagged E72Q mVDAC1 variant
% of protection (U937 cells [3]; protection by RuR (1 μM) against apoptosis of transfected U937 cells): 0% | Apoptotic cells, % −RuR (U937 cells [3]; transfected U937 cells, without RuR, mean±SEM (n=3)): 71.9 ± 4.7% | Apoptotic cells, % +RuR (U937 cells [3]; transfected U937 cells, 56 hr after transfection exposed 20 hr to RuR (1 μM), mean±SEM (n=3)): 71.6 ± 4.4%

E202Q-mVDAC1: VDAC1 polypeptide variant E202Q [Peptide E202Q-mVDAC1]
protective effect of HK-I over-expression against cell death induced by mVDAC1 over-expression (U937 cells [2]): no protective effect

G67A-mVDAC1: VDAC1 polypeptide variant G67A [Peptide G67A-mVDAC1]
protective effect of HK-I over-expression against cell death induced by mVDAC1 over-expression (U937 cells [2]): dramatically reduced

K73L-mVDAC1: VDAC1 polypeptide variant K73L [Peptide K73L-mVDAC1]
protective effect of HK-I over-expression against cell death induced by mVDAC1 over-expression (U937 cells [2]): no protective effect

N75A-mVDAC1: VDAC1 polypeptide variant N75A [Peptide N75A-mVDAC1]
protective effect of HK-I over-expression against cell death induced by mVDAC1 over-expression (U937 cells [2]): dramatically reduced
